Source: patent US8741906B2 (priority 2011, dated 2014)

How the values were obtained:
[1] = molecular target: T1, human CB1 receptors (Homo sapiens, UniProt P21554); test: functional cAMP assay, human CB1; format: cell-based; conditions: CHO cells expressing human CB1, cAMP; read-out: human CB1 EC50
T1 construct: expressed in transfected cells; host or cells: CHO cells
Method in brief: (§1)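 Readout: TR-FRET cAMP detection at 730 and 645 nm with 355 nm excitation, quantified from a standard curve spanning 10 μM to 0.13 nM cAMP. Human CB1- or CB2-expressing CHO cells were exposed to compound for 30 min at 30 °C in KRB buffer containing 1 mM IBMX. EC50 derived.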

[2] = molecular target: T2, human CB2 receptors (Homo sapiens, UniProt P34972); test: functional cAMP assay, human CB2; format: cell-based; conditions: CHO cells expressing human CB2, cAMP; read-out: human CB2 EC50
T2 construct: expressed in transfected cells; host or cells: CHO cells
Method in brief: as §1

T1 sequence (P21554 whole entry): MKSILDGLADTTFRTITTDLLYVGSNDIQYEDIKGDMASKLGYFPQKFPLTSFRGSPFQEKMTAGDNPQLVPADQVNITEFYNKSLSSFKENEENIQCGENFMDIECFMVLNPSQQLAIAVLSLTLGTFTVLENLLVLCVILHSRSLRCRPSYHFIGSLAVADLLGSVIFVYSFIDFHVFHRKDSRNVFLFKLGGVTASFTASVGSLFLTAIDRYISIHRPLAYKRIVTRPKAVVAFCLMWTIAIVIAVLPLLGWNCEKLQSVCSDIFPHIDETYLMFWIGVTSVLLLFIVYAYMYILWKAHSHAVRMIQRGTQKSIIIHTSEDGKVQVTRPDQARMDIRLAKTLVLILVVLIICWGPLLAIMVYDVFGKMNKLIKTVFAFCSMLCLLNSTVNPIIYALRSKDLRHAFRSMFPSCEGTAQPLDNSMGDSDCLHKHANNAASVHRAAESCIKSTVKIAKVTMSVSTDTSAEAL
T2 sequence (P34972 whole entry): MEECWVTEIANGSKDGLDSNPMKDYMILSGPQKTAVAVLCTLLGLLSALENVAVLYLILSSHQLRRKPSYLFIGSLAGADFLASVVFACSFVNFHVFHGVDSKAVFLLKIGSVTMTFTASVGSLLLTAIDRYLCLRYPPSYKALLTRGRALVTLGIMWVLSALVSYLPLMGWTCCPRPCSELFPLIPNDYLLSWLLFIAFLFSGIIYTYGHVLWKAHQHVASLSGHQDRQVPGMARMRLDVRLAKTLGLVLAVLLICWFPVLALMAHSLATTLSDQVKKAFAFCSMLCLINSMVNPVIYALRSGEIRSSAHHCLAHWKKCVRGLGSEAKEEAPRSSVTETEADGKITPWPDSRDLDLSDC

Question: `CC(C)(C)c1nc(N2CC[C@@](C)(O)C2)c2nnn(CCC(F)(F)F)c2n1` [Example 229-b, (R)-1-(5-tert-butyl-3-(3,3,3-trifluoropropyl)-3H-[1,2,3]triazolo[4,5-d]pyrimidin-7-yl)-3-methylpyrrolidin-3-ol] was tested. Which EC50 [1] did it give?
Answer: > 10000 nM

Question: And the EC50 [2]?
Answer: 37.4 nM

Question: What does the source list for `CC(C)(C)c1nc(N2CC[C@](C)(O)C2)c2nnn(Cc3nnnn3C3CC3)c2n1` [Example 230-a, (S)-1-(5-tert-butyl-3-((1-cyclopropyl-1H-tetrazol-5-yl)methyl)-3H-[1,2,3]triazolo[4,5-d]pyrimidin-7-yl)-3-methylpyrrolidin-3-ol]?
Answer: EC50 [1]: > 10000 nM; EC50 [2]: 2.7 nM

Question: `CC(C)(C)c1nc(N2CC[C@@](C)(O)C2)c2nnn(Cc3nnnn3C3CC3)c2n1` [Example 230-b, (R)-1-(5-tert-butyl-3-((1-cyclopropyl-1H-tetrazol-5-yl)methyl)-3H-[1,2,3]triazolo[4,5-d]pyrimidin-7-yl)-3-methylpyrrolidin-3-ol] was tested. Which EC50 [1] did it give?
Answer: > 10000 nM

Question: What about the EC50 [2] of the same molecule?
Answer: 13.6 nM
